In article PMC11172384, “Specific Mutations Reverse Regulatory Effects of Adenosine Phosphates and Increase Their Binding Stoichiometry in CBS Domain-Containing Pyrophosphatase” (International Journal of Molecular Sciences, 2024):

Tests used:
[1] = biological target: T1, dhPPase (Desulfitobacterium hafniense CBS-PPase) (Desulfitobacterium hafniense, UniProt B8FP42, G118M); test: activation of PPi hydrolysis, continuous Pi assay, Hill fit; assay type: biochemical; conditions: read-out: Adenosine Phosphate and Parameter Value ^a / Ap4A / K
T1 construct: gene Dhaf_1515; full-length, tag-less, recombinant in E. coli BL21 (pET-42b); homotetramer
From the text: (§1) activation of PPi hydrolysis, continuous Pi assay, Hill fit on dhPPase (Desulfitobacterium hafniense CBS-PPase)

[2] = biological target: T2, dhPPase (Desulfitobacterium hafniense CBS-PPase) (Desulfitobacterium hafniense, UniProt B8FP42, V117A); test: as above; assay type: biochemical; conditions: read-out: Adenosine Phosphate and Parameter Value ^a / Ap4A / K
T2 construct: gene Dhaf_1515; full-length, tag-less, recombinant in E. coli BL21 (pET-42b); homotetramer
From the text: as §1

[3] = biological target: T3, dhPPase (Desulfitobacterium hafniense CBS-PPase) (Desulfitobacterium hafniense, UniProt B8FP42, K100A); test: as above; assay type: biochemical; conditions: read-out: Adenosine Phosphate and Parameter Value ^a / Ap4A / K
T3 construct: gene Dhaf_1515; full-length, tag-less, recombinant in E. coli BL21 (pET-42b); homotetramer
From the text: as §1

[4] = biological target: T4, dhPPase (Desulfitobacterium hafniense CBS-PPase) (Desulfitobacterium hafniense, UniProt B8FP42, V117T); test: as above; assay type: biochemical; conditions: read-out: Adenosine Phosphate and Parameter Value ^a / Ap4A / K
T4 construct: gene Dhaf_1515; full-length, tag-less, recombinant in E. coli BL21 (pET-42b); homotetramer
From the text: as §1

[5] = biological target: T5, dhPPase (Desulfitobacterium hafniense CBS-PPase) (Desulfitobacterium hafniense, UniProt B8FP42); test: isothermal titration calorimetry, single-binding-site model; conditions: read-out: KN
T5 construct: gene Dhaf_1515; full-length, tag-less, recombinant in E. coli BL21 (pET-42b); homotetramer
T5 sequence (B8FP42 1-544): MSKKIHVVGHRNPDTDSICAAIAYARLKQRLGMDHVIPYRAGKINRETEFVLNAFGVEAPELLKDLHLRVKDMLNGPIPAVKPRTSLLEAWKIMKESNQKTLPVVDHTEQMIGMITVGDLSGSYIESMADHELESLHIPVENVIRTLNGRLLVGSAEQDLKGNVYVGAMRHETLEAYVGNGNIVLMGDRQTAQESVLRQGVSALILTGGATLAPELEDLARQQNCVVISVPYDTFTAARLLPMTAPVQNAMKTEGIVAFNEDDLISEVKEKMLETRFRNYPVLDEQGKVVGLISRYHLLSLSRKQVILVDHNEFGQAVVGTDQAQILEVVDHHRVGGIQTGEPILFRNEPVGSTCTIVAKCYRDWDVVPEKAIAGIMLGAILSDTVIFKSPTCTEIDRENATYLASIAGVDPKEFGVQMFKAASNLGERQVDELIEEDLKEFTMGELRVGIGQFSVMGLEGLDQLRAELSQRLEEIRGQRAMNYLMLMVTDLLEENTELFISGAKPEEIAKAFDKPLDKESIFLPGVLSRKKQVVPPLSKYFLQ
From the text: (§2) isothermal titration calorimetry, single-binding-site model on dhPPase (Desulfitobacterium hafniense CBS-PPase)

[6] = biological target: T3, dhPPase (Desulfitobacterium hafniense CBS-PPase); test: as above; conditions: read-out: KN
From the text: as §2

[7] = biological target: T6, dhPPase (Desulfitobacterium hafniense CBS-PPase) (Desulfitobacterium hafniense, UniProt B8FP42, E126A); test: as above; conditions: read-out: KN
T6 construct: gene Dhaf_1515; full-length, tag-less, recombinant in E. coli BL21 (pET-42b); homotetramer
From the text: as §2

[8] = biological target: T5, dhPPase (Desulfitobacterium hafniense CBS-PPase); test: continuous Pi assay; assay type: biochemical; conditions: pH 7.2, 25 °C, 5.23 mM MgCl2, 140 µM PPi
[9] = biological target: T1, dhPPase (Desulfitobacterium hafniense CBS-PPase); test: isothermal titration calorimetry, single-binding-site model; conditions: read-out: KN
From the text: as §2

[10] = biological target: T7, dhPPase (Desulfitobacterium hafniense CBS-PPase) (Desulfitobacterium hafniense, UniProt B8FP42, K95A); test: as above; conditions: read-out: KN
T7 construct: gene Dhaf_1515; full-length, tag-less, recombinant in E. coli BL21 (pET-42b); homotetramer
From the text: as §2

[11] = biological target: T8, dhPPase (Desulfitobacterium hafniense CBS-PPase) (Desulfitobacterium hafniense, UniProt B8FP42, G118A); test: as above; conditions: read-out: KN
T8 construct: gene Dhaf_1515; full-length, tag-less, recombinant in E. coli BL21 (pET-42b); homotetramer
From the text: as §2

T3 sequence (B8FP42 entry or part of it K100A): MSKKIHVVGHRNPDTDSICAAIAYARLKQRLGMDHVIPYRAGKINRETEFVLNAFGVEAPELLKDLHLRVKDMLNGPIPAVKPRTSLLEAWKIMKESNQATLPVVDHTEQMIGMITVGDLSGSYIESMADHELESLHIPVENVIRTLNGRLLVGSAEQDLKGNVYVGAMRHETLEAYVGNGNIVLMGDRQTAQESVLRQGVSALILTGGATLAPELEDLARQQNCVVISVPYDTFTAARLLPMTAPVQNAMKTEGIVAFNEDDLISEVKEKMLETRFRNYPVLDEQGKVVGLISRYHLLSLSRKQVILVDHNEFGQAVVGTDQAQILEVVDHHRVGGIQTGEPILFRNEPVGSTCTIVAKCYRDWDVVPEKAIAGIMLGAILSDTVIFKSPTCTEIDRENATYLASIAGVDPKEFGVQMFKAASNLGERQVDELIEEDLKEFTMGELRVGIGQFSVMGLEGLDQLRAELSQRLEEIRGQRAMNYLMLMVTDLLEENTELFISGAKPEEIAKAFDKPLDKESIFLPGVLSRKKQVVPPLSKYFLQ
T1 sequence (B8FP42 entry or part of it G118M): as the sequence (B8FP42 entry or part of it K100A) above, with A100K, G118M counted along it
T6 sequence (B8FP42 entry or part of it E126A): as the sequence (B8FP42 entry or part of it K100A) above, with A100K, E126A counted along it
T7 sequence (B8FP42 entry or part of it K95A): as the sequence (B8FP42 entry or part of it K100A) above, with K95A, A100K counted along it
T8 sequence (B8FP42 entry or part of it G118A): as the sequence (B8FP42 entry or part of it K100A) above, with A100K, G118A counted along it
T2 sequence (B8FP42 entry or part of it V117A): as the sequence (B8FP42 entry or part of it K100A) above, with A100K, V117A counted along it
T4 sequence (B8FP42 entry or part of it V117T): as the sequence (B8FP42 entry or part of it K100A) above, with A100K, V117T counted along it

## Nc1ncnc2c1ncn2[C@@H]1O[C@H](COP(=O)(O)OP(=O)(O)OP(=O)(O)OP(=O)(O)OC[C@H]2O[C@@H](n3cnc4c(N)ncnc43)[C@H](O)[C@@H]2O)[C@@H](O)[C@H]1O [Ap4A]
[1]
  EC50: 28 ± 1 nM
[2]
  EC50: 120 ± 10 nM
[3]
  EC50: 11.5 ± 0.1 nM
[4]
  EC50: 1.3 ± 0.05 nM

## Nc1ncnc2c1ncn2[C@@H]1O[C@H](COP(=O)(O)OP(=O)(O)O)[C@@H](O)[C@H]1O [ADP]
[5]
  Kd: 1000 ± 200 nM
[6]
  Kd: 6000 ± 2000 nM
[7]
  Kd: 600 ± 100 nM

## Nc1ncnc2c1ncn2[C@@H]1O[C@H](COP(=O)(O)OP(=O)(O)OP(=O)(O)O)[C@@H](O)[C@H]1O [ATP]
[5]
  Kd: 2100 ± 300 nM

## O=P(O)(O)OP(=O)(O)O [PPi]
[8]
  continuous Pi assay: The initial rates of PPi hydrolysis were measured using a continuous Pi assay

## Nc1ncnc2c1ncn2[C@@H]1O[C@H](COP(=O)(O)O)[C@@H](O)[C@H]1O [AMP]
[5]
  Kd: 800 ± 300 nM
[9]
  Kd: 520 ± 70 nM
[6]
  Kd: 1300 ± 200 nM
[10]
  Kd: 4600 ± 700 nM
[11]
  Kd: 4200 ± 600 nM
